Experimental data reported in patent publication US10975093B2, “Fused 1,4-diazepines as BET protein degraders” (THE REGENTS OF THE UNIVERSITY OF MICHIGAN, priority 2016, dated 2021).

Legend:
Format in all cases: cell-based
MDA-MB-231 = assay: Cell growth inhibition, CellTiter-Glo Luminescent Cell Viability Assay, MDA-MB-231; conditions: Homo sapiens, MDA-MB-231 cells, 4 days incubation
Outline: (§1)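 IC50 values come from CellTiter-Glo ATP luminescence after a 4-day exposure to a compound dilution series. Seeding was 2,000 cells per well at 37° C under 5% CO2, with reagent read after 10-20 min at room temperature.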

MDA-MB-468 = assay: Cell growth inhibition, CellTiter-Glo Luminescent Cell Viability Assay, MDA-MB-468; conditions: Homo sapiens, 96 h, MDA-MB-468 cells, 4 days incubation
Method: (§2) Cell growth inhibitory activity of representative Compounds of the Disclosure was determined in various cell lines using CellTiter-Glo® Luminescent Cell Viability Assay. Cells were seeded in 384-well white opaque cell culture plates at a density of 2,000 cells/well with serially diluted compounds and incubated at 37° C. in an atmosphere of 95% air and 5% CO2 for 4 days. Cell viability was determined using the CellTiter-Glo® Luminescent Cell Viability Assay Kit (Promega, Madison, Wis.) according to the manufacture's instruction. Briefly, a volume of CellTiter-Glo® Reagent equal to the volume of cell culture medium was added to each well, and then the plates were incubated at room temperature for 10-20 minutes. The luminescent signal was measured using a Tecan Infinite M1000 multimode microplate reader (Tecan, Morrisville, N.C.). The half maximal inhibitory concentration (IC50) was calculated using the GraphPad Prism 5 software (GraphPad Software, La Jolla, Calif.).

MOLM-13 = assay: Cell growth inhibition, CellTiter-Glo Luminescent Cell Viability Assay, MOLM-13; conditions: Homo sapiens, MOLM-13 cells, 4 days incubation
Outline: as §1

RS4; 11 = assay: Cell growth inhibition, CellTiter-Glo Luminescent Cell Viability Assay, RS4;11; conditions: Homo sapiens, 96 h, RS4;11 cells, 4 days incubation
Method: as §2

Row | Compound | IC50 (MDA-MB-231; MDA-MB-231, 96 h) [nM] | IC50 (MDA-MB-468) [nM] | IC50 (MOLM-13; MOLM-13, 96 h) [nM] | IC50 (RS4; 11) [nM] | IC50 (MDA-MB-231; 96 h) [nM] | IC50 (MOLM-13; 96 h) [nM]
1 | Cc1c(C#Cc2cnn(CCCCCc3cccc4c3CN(C3CCC(=O)NC3=O)C4=O)c2)sc2c1C(c1ccc(Cl)cc1)=NCc1nnc(C)n1-2 (stereo not shown) [Cpd. No. 23, 3-(4-(5-(4-((4-(4-chlorophenyl)-3,9-dimethyl-6H-thieno[3,2-f][1,2,4]triazolo[4,3-a][1,4]diazepin-2-yl)ethynyl)-1H-pyrazol-1-yl)pentyl)-1-oxoisoindolin-2-yl)piperidine-2,6-dione] | 1.7 | 4.2 | 1.9 | 0.3 | – | –
2 | Cc1c(C#Cc2cn(CCCCCc3cccc4c3CN(C3CCC(=O)NC3=O)C4=O)nn2)sc2c1C(c1ccc(Cl)cc1)=NCc1nnc(C)n1-2 (stereo not shown) [Cpd. No. 3, 3-(4-(5-(4-((4-(4-chlorophenyl)-3,9-dimethyl-6H-thieno[3,2-f][1,2,4]triazolo[4,3-a][1,4]diazepin-2-yl)ethynyl)-1H-1,2,3-triazol-1-yl)pentyl)-1-oxoisoindolin-2-yl)piperidine-2,6-dione] | – | 3.1 | – | 0.27 | 3.5 | 1
3 | Cc1c(C#Cc2cnn(CCCC#Cc3cccc4c3CN(C3CCC(=O)NC3=O)C4=O)c2)sc2c1C(c1ccc(Cl)cc1)=NCc1nnc(C)n1-2 (stereo not shown) [Cpd. No. 20, 3-(4-(5-(4-((4-(4-chlorophenyl)-3,9-dimethyl-6H-thieno[3,2-f][1,2,4]triazolo[4,3-a][1,4]diazepin-2-yl)ethynyl)-1H-pyrazol-1-yl)pent-1-yn-1-yl)-1-oxoisoindolin-2-yl)piperidine-2,6-dione] | 0.08 | 0.2 | 0.8 | 0.1 | – | –
4 | Cc1c(C#Cc2cncn2CCCC#Cc2cccc3c2CN(C2CCC(=O)NC2=O)C3=O)sc2c1C(c1ccc(Cl)cc1)=NCc1nnc(C)n1-2 (stereo not shown) [Cpd. No. 28, 3-(4-(5-(5-((4-(4-chlorophenyl)-3,9-dimethyl-6H-thieno[3,2-f][1,2,4]triazolo[4,3-a][1,4]diazepin-2-yl)ethynyl)-1H-imidazol-1-yl)pent-1-yn-1-yl)-1-oxoisoindolin-2-yl)piperidine-2,6-dione] | > 100 | > 100 | 66.1 | > 10 | – | –
5 | Cc1c(C#Cc2cn(CCCC#Cc3cccc4c3CN(C3CCC(=O)NC3=O)C4=O)nn2)sc2c1C(c1ccc(Cl)cc1)=NCc1nnc(C)n1-2 (stereo not shown) [Cpd. No. 1, 3-(4-(5-(4-((4-(4-chlorophenyl)-3,9-dimethyl-6H-thieno[3,2-f][1,2,4]triazolo[4,3-a][1,4]diazepin-2-yl)ethynyl)-1H-1,2,3-triazol-1-yl)pent-1-yn-1-yl)-1-oxoisoindolin-2-yl)piperidine-2,6-dione] | – | 10 | – | 0.25 | 8.1 | 1.16
6 | Cc1c(C#Cc2cn(CCCCNc3cccc4c3CN(C3CCC(=O)NC3=O)C4=O)nn2)sc2c1C(c1ccc(Cl)cc1)=NCc1nnc(C)n1-2 (stereo not shown) [Cpd. No. 5, 3-(4-((4-(4-((4-(4-chlorophenyl)-3,9-dimethyl-6H-thieno[3,2-f][1,2,4]triazolo[4,3-a][1,4]diazepin-2-yl)ethynyl)-1H-1,2,3-triazol-1-yl)butyl)amino)-1-oxoisoindolin-2-yl)piperidine-2,6-dione] | – | 26.1 | – | 0.29 | 22.8 | 3.6
7 | Cc1c(C#Cc2ccc(CCCCOc3cccc4c3C(=O)N(C3CCC(=O)NC3=O)C4=O)cn2)sc2c1C(c1ccc(Cl)cc1)=NCc1nnc(C)n1-2 (stereo not shown) [Cpd. No. 9, 4-(4-(6-((4-(4-chlorophenyl)-3,9-dimethyl-6H-thieno[3,2-f][1,2,4]triazolo[4,3-a][1,4]diazepin-2-yl)ethynyl)pyridin-3-yl)butoxy)-2-(2,6-dioxopiperidin-3-yl)isoindoline-1,3-dione] | – | 33 | – | 2.3 | 20.4 | 19
